Results taken from US20240067693A1, “POLYPEPTIDES AND USES THEREOF” (MEDIMMUNE LIMITED, priority 2020, published 2024).
Numbered stars: 1 amine (or outer) side, 2 acyl side, 3 side chain; on linkers, the order of the positions; unused ones are H or OH. Bridge positions count the residues as written; N and C are the ends. Square brackets hold non-standard residues; d marks the D form. Side chains are listed from the residue outwards. Peptide text beside a SMILES is read from it. * marks the point of attachment. C18 diacid = O=C(O)CCCCCCCCCCCCCCCCC(=O)*; γGlu = O=C(O)[C@H](CCC(=O)[*:2])N[*:1]; Aib = CC(C)(N)C(=O)O

What was measured:
[1] = target: T1, human amylin receptor (calcitonin receptor co-expressed with receptor activity modifying protein, RAMP3) (hAMYR3) (Homo sapiens, UniProt O60896+P30988); experiment: cAMP production in 1321N1 cells with stable recombinant expression of human amylin receptor (hAMYR3); assay type: cell-based; conditions: for Ratio (selectivity hAMYR vs hCTR, ratio of EC50 values at the two receptors): EC50 hCTR / EC50 hAMYR3; for EC50: cAMP, 1321N1 cells, assay buffer with 0.1% BSA, read-out: EC50 (pM) hAMYR3
T1 construct: expressed in transfected cells
T1 sequence (P30988 25-474): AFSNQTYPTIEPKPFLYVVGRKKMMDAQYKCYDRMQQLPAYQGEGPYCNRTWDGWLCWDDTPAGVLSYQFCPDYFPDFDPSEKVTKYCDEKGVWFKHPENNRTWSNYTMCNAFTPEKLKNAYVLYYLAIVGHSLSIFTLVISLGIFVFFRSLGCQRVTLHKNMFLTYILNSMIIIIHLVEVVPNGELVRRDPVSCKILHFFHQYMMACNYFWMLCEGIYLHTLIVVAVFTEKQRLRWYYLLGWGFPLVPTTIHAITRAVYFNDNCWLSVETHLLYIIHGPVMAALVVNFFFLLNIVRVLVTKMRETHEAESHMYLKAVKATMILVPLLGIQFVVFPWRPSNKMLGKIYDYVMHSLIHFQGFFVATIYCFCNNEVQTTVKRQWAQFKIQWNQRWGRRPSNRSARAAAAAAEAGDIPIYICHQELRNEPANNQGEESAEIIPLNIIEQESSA
T1 sequence (O60896 24-148 partner): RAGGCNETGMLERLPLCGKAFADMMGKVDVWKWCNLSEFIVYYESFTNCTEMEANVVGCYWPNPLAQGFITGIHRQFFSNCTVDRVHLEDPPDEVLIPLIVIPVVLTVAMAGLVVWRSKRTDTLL
Procedure, shortened: (§1)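 Receptor-expressing cells (human receptors in 1321N1, rat receptors in HEK) incubated 30 min at room temperature with peptide in HBSS/HEPES pH 7.4, 0.1% BSA, 0.5 mM IBMX. cAMP read by HTRF; EC50 from 4-parameter fit as % of maximal amylin or calcitonin response.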

[2] = target: T2, human calcitonin receptor (hCTR) (Homo sapiens, UniProt P30988); experiment: cAMP production in 1321N1 cells with stable recombinant expression of human calcitonin receptor (hCTR); assay type: cell-based; conditions: cAMP, 1321N1 cells, assay buffer with 0.1% BSA; read-out: EC50 (pM) hCTR
T2 construct: expressed in transfected cells
T2 sequence (P30988 25-474): T1 sequence (P30988 25-474)
Procedure, shortened: as §1

SMILES | Ratio (selectivity hAMYR vs hCTR, ratio of EC50 values at the two receptors) [1] | EC50 [1] [pM] | EC50 [2] [pM]
CC[C@H](C)[C@H](NC(=O)[C@@H]1CCCN1C(=O)CNC(=O)[C@H](Cc1ccccc1)NC(=O)[C@H](CC(N)=O)NC(=O)[C@H](CC(N)=O)NC(=O)[C@H](CO)NC(=O)[C@H](CO)NC(=O)[C@H](Cc1c[nH]cn1)NC(=O)C(C)(C)NC(=O)[C@H](CC(C)C)NC(=O)[C@H](Cc1ccccc1)NC(=O)[C@H](CC(N)=O)NC(=O)[C@H](C)NC(=O)[C@H](CC(C)C)NC(=O)[C@H](CCCNC(=N)N)NC(=O)[C@H](CCC(N)=O)NC(=O)[C@@H](NC(=O)[C@H](C)NC(=O)[C@@H]1CSSC[C@H](NC(=O)[C@H](CCCCN)NC(=O)[C@@H](N)CCCCNC(=O)CC[C@H](NC(=O)CCCCCCCCCCCCCCCCC(=O)O)C(=O)O)C(=O)N[C@@H](CC(N)=O)C(=O)N[C@@H]([C@@H](C)O)C(=O)N[C@@H](C)C(=O)N[C@@H]([C@@H](C)O)C(=O)N1)[C@@H](C)O)C(=O)N[C@@H](CC(C)C)C(=O)N1CCC[C@H]1C(=O)N1CCC[C@H]1C(=O)N[C@H](C(=O)N[C@@H](CC(N)=O)C(=O)N[C@H](C(=O)NCC(=O)N[C@@H](CO)C(=O)N[C@@H](CCC(=O)O)C(=O)N[C@H](C(=O)N[C@@H](Cc1ccc(O)cc1)C(N)=O)[C@@H](C)O)C(C)C)[C@@H](C)O [Peptide 142] (H-K([γGlu-C18 diacid])KCNTATCATQRLANFL[Aib]HSSNNFGPILPPTNVGSETY-NH2; disulfide 3-8; N-terminus assumed) | 3.1 | 730 | 2270
CC[C@H](C)[C@H](NC(=O)[C@@H]1CCCN1C(=O)CNC(=O)[C@H](Cc1ccccc1)NC(=O)[C@H](CC(N)=O)NC(=O)[C@H](CC(N)=O)NC(=O)[C@H](CO)NC(=O)[C@H](CO)NC(=O)[C@H](Cc1c[nH]cn1)NC(=O)C(C)(C)NC(=O)[C@H](CC(C)C)NC(=O)[C@H](Cc1ccccc1)NC(=O)[C@H](CC(N)=O)NC(=O)[C@H](C)NC(=O)[C@H](CC(C)C)NC(=O)[C@H](CCCNC(=N)N)NC(=O)[C@H](CCC(N)=O)NC(=O)[C@@H](NC(=O)[C@H](C)NC(=O)[C@@H]1CSSC[C@H](NC(=O)[C@H](CCCCN)NC(=O)CNC(=O)CNC(=O)[C@@H](N)CCCCNC(=O)CC[C@H](NC(=O)CCCCCCCCCCCCCCCCC(=O)O)C(=O)O)C(=O)N[C@@H](CC(N)=O)C(=O)N[C@@H]([C@@H](C)O)C(=O)N[C@@H](C)C(=O)N[C@@H]([C@@H](C)O)C(=O)N1)[C@@H](C)O)C(=O)N[C@@H](CC(C)C)C(=O)N1CCC[C@H]1C(=O)N1CCC[C@H]1C(=O)N[C@H](C(=O)N[C@@H](CC(N)=O)C(=O)N[C@H](C(=O)NCC(=O)N[C@@H](CO)C(=O)N[C@@H](CC(N)=O)C(=O)N[C@H](C(=O)N[C@@H](Cc1ccc(O)cc1)C(N)=O)[C@@H](C)O)C(C)C)[C@@H](C)O [Peptide 143] (H-K([γGlu-C18 diacid])GGKCNTATCATQRLANFL[Aib]HSSNNFGPILPPTNVGSNTY-NH2; disulfide 5-10; N-terminus assumed) | 11.7 | 592 | 6940
CC[C@H](C)[C@H](NC(=O)[C@@H]1CCCN1C(=O)CNC(=O)[C@H](Cc1ccccc1)NC(=O)[C@H](CC(N)=O)NC(=O)[C@H](CC(N)=O)NC(=O)[C@H](CO)NC(=O)[C@H](CO)NC(=O)[C@H](Cc1c[nH]cn1)NC(=O)C(C)(C)NC(=O)[C@H](CC(C)C)NC(=O)[C@H](Cc1ccccc1)NC(=O)[C@H](Cc1c[nH]cn1)NC(=O)[C@H](C)NC(=O)[C@H](CC(C)C)NC(=O)[C@H](CCCNC(=N)N)NC(=O)[C@H](CCC(N)=O)NC(=O)[C@@H](NC(=O)[C@H](C)NC(=O)[C@@H]1CSSC[C@H](NC(=O)[C@@H](N)CCCCNC(=O)CC[C@H](NC(=O)CCCCCCCCCCCCCCCCC(=O)O)C(=O)O)C(=O)N[C@@H](CC(N)=O)C(=O)N[C@@H]([C@@H](C)O)C(=O)N[C@@H](C)C(=O)N[C@@H]([C@@H](C)O)C(=O)N1)[C@@H](C)O)C(=O)N[C@@H](CC(C)C)C(=O)N1CCC[C@H]1C(=O)N1CCC[C@H]1C(=O)N[C@H](C(=O)N[C@@H](CC(N)=O)C(=O)N[C@H](C(=O)NCC(=O)N[C@@H](CO)C(=O)N[C@@H](CC(N)=O)C(=O)N[C@H](C(=O)N[C@@H](Cc1ccc(O)cc1)C(N)=O)[C@@H](C)O)C(C)C)[C@@H](C)O [Peptide 144] (H-K([γGlu-C18 diacid])CNTATCATQRLAHFL[Aib]HSSNNFGPILPPTNVGSNTY-NH2; disulfide 2-7; N-terminus assumed) | 5.3 | 138 | 725
CC[C@H](C)[C@H](NC(=O)[C@@H]1CCCN1C(=O)CNC(=O)[C@H](Cc1ccccc1)NC(=O)[C@H](CC(N)=O)NC(=O)[C@H](CC(N)=O)NC(=O)[C@H](CO)NC(=O)[C@H](CO)NC(=O)[C@H](Cc1c[nH]cn1)NC(=O)C(C)(C)NC(=O)[C@H](CC(C)C)NC(=O)[C@H](Cc1ccccc1)NC(=O)[C@H](CC(N)=O)NC(=O)[C@H](C)NC(=O)[C@H](CC(C)C)NC(=O)[C@H](CCCNC(=N)N)NC(=O)[C@H](CCC(N)=O)NC(=O)[C@@H](NC(=O)[C@H](C)NC(=O)[C@@H]1CSSC[C@H](NC(=O)[C@H](CCCCN)NC(=O)[C@@H](N)CCCCNC(=O)CC[C@H](NC(=O)CCCCCCCCCCCCCCCCC(=O)O)C(=O)O)C(=O)N[C@@H](CC(N)=O)C(=O)N[C@@H]([C@@H](C)O)C(=O)N[C@@H](C)C(=O)N[C@@H]([C@@H](C)O)C(=O)N1)[C@@H](C)O)C(=O)N[C@@H](CC(C)C)C(=O)N1CCC[C@H]1C(=O)N1CCC[C@H]1C(=O)N[C@H](C(=O)N[C@@H](CC(N)=O)C(=O)N[C@H](C(=O)NCC(=O)N[C@@H](Cc1c[nH]cn1)C(=O)N[C@@H](CC(N)=O)C(=O)N[C@H](C(=O)N[C@@H](Cc1ccc(O)cc1)C(N)=O)[C@@H](C)O)C(C)C)[C@@H](C)O [Peptide 145] (H-K([γGlu-C18 diacid])KCNTATCATQRLANFL[Aib]HSSNNFGPILPPTNVGHNTY-NH2; disulfide 3-8; N-terminus assumed) | 4.5 | 417 | 1880
CC[C@H](C)[C@H](NC(=O)[C@@H]1CCCN1C(=O)CNC(=O)[C@H](Cc1ccccc1)NC(=O)[C@H](CC(N)=O)NC(=O)[C@H](CC(N)=O)NC(=O)[C@H](CO)NC(=O)[C@H](CO)NC(=O)[C@H](Cc1c[nH]cn1)NC(=O)C(C)(C)NC(=O)[C@H](CC(C)C)NC(=O)[C@H](Cc1ccccc1)NC(=O)[C@H](CC(N)=O)NC(=O)[C@H](C)NC(=O)[C@H](CC(C)C)NC(=O)[C@H](CCCNC(=N)N)NC(=O)[C@H](CCC(N)=O)NC(=O)[C@@H](NC(=O)[C@H](C)NC(=O)[C@@H]1CSSC[C@H](NC(=O)[C@H](CCCCN)NC(=O)[C@@H](N)CCCCNC(=O)CC[C@H](NC(=O)CCCCCCCCCCCCCCCCC(=O)O)C(=O)O)C(=O)N[C@@H](CC(N)=O)C(=O)N[C@@H]([C@@H](C)O)C(=O)N[C@@H](C)C(=O)N[C@@H]([C@@H](C)O)C(=O)N1)[C@@H](C)O)C(=O)N[C@@H](CC(C)C)C(=O)N1CCC[C@H]1C(=O)N1CCC[C@H]1C(=O)N[C@H](C(=O)N[C@@H](Cc1c[nH]cn1)C(=O)N[C@H](C(=O)NCC(=O)N[C@@H](CO)C(=O)N[C@@H](CCC(=O)O)C(=O)N[C@H](C(=O)N[C@@H](Cc1ccc(O)cc1)C(N)=O)[C@@H](C)O)C(C)C)[C@@H](C)O [Peptide 146] (H-K([γGlu-C18 diacid])KCNTATCATQRLANFL[Aib]HSSNNFGPILPPTHVGSETY-NH2; disulfide 3-8; N-terminus assumed) | 1.9 | 2530 | 4870
CC[C@H](C)[C@H](NC(=O)[C@@H]1CCCN1C(=O)CNC(=O)[C@H](Cc1ccccc1)NC(=O)[C@H](Cc1c[nH]cn1)NC(=O)[C@H](CC(N)=O)NC(=O)[C@H](CO)NC(=O)[C@H](CO)NC(=O)[C@H](Cc1c[nH]cn1)NC(=O)C(C)(C)NC(=O)[C@H](CC(C)C)NC(=O)[C@H](Cc1ccccc1)NC(=O)[C@H](CC(N)=O)NC(=O)[C@H](C)NC(=O)[C@H](CC(C)C)NC(=O)[C@H](CCCNC(=N)N)NC(=O)[C@H](CCC(N)=O)NC(=O)[C@@H](NC(=O)[C@H](C)NC(=O)[C@@H]1CSSC[C@H](NC(=O)[C@H](CCCCN)NC(=O)[C@@H](N)CCCCNC(=O)CC[C@H](NC(=O)CCCCCCCCCCCCCCCCC(=O)O)C(=O)O)C(=O)N[C@@H](CC(N)=O)C(=O)N[C@@H]([C@@H](C)O)C(=O)N[C@@H](C)C(=O)N[C@@H]([C@@H](C)O)C(=O)N1)[C@@H](C)O)C(=O)N[C@@H](CC(C)C)C(=O)N1CCC[C@H]1C(=O)N1CCC[C@H]1C(=O)N[C@H](C(=O)N[C@@H](CC(N)=O)C(=O)N[C@H](C(=O)NCC(=O)N[C@@H](CO)C(=O)N[C@@H](CCC(=O)O)C(=O)N[C@H](C(=O)N[C@@H](Cc1ccc(O)cc1)C(N)=O)[C@@H](C)O)C(C)C)[C@@H](C)O [Peptide 147] (H-K([γGlu-C18 diacid])KCNTATCATQRLANFL[Aib]HSSNHFGPILPPTNVGSETY-NH2; disulfide 3-8; N-terminus assumed) | 1.9 | 802 | 1510
